These are literature values, as cited in patent publication US12343417B2, “Antiperspirant compositions” (Conopco, Inc., priority 2018, dated 2025).

As a reminder, the MIC is the smallest concentration in the dilution series that meets the test's criterion for growth inhibition.

The data set deals with Staphylococcus epidermidis. The following applies: 80% or greater reduction in growth over 16 to 24 hours at 37° C.
Regarding `CCO` [ethanol], the MIC entry is listed as “greater than 1 mg·ml^−1”.
`Oc1cc(Cl)ccc1Oc1ccc(Cl)cc1Cl` [triclosan, 2′,4,4′-trichloro,2-hydroxy-diphenyl ether]: the MIC is 0.01 to 10 µg/mL.
`CC(C)=CCCC(C)=CCCC(C)=CCO` [farnesol, 3,7,11-trimethyldodeca-2,6, 10-trienol]: the minimum inhibitory concentration (MIC) result is recorded as “ca. 25 μg·ml^−1”.
